Where two headings read alike, the source gives them in different places.
Columns and labels:
[1] = system: MIA PaCa-2 (KRAS G12C) cells; test: Cellular pERK HTRF assay (KRAS_G12C pERK); type: cell-based, human; conditions: read-out: G12C_pERK
Protocol: Example C: Cellular pERK HTRF Assay
MIA PaCa-2 (KRAS G12C; ATCC® CRL-1420), A427 (KRAS G12D; ATCC® HTB53), HPAF-II (KRAS G12D; ATCC® CRL-1997) and NCI-H838 (KRAS WT; ATCC® CRL-5844) cells are purchased from ATCC and maintained in RPMI 1640 media supplemented with 10% FBS (Gibco/Life Technologies). The cells are plated at 5000 cells per well (8 uL) into Greiner 384-well low volume, flat-bottom, tissue culture treated white plates and incubated overnight at 37° C., 5% CO2. The next morning, test compound stock solutions are diluted in media at 3× the final concentration, and 4 uL are added to the cells. The plate is mixed by gentle rotation for 30 seconds (250 rpm) at room temperature. The cells are incubated with the KRAS G12C and G12D compounds for 4 hours or 2 hours respectively at 37° C., 5% CO2.
4 uL of 4× lysis buffer with blocking reagent (1:25) (Cisbio) are added to each well and plates are rotated gently (300 rpm) for 30 minutes at room temperature. 4 uL per well of Cisbio anti Phospho-ERK 1/2 d2 is mixed with anti Phospho-ERK 1/2 Cryptate (1:1) are added to each well, mixed by rotation and incubated overnight in the dark at room temperature. Plates are read on the Pherastar plate reader at 665 nm and 620 nm wavelengths. IC50 determination is performed by fitting the curve of inhibitor percent inhibition versus the log of the inhibitor concentration using the GraphPad Prism 7 software.

KRAS G12C = KRAS G12C (Homo sapiens, UniProt P01116, G12C); test: GDP-GTP exchange assay (KRAS_G12C exchange); type: biochemical; conditions: bodipy-GDP loaded KRAS G12C 2.5 nM, SOS1 150 nM, GppNHp; 2 hours pre-incubation, 2 hours reaction; read-out: G12C_exchange
Protocol: Example A. GDP-GTP Exchange Assay
The inhibitor potency of the exemplified compounds was determined in a fluorescence based guanine nucleotide exchange assay, which measures the exchange of bodipy-GDP (fluorescently labeled GDP) for GppNHp (Non-hydrolyzable GTP analog) to generate the active state of KRAS in the presence of SOS1 (guanine nucleotide exchange factor). Inhibitors were serially diluted in DMSO and a volume of 0.1 μL was transferred to the wells of a black low volume 384-well plate. 5 μL/well volume of bodipy-loaded KRAS G12C diluted to 5 nM in assay buffer (25 mM Hepes pH 7.5, 50 mM NaCl, 10 mM MgCl2 and 0.01% Brij-35) was added to the plate and pre-incubated with inhibitor for 2 hours at ambient temperature. Appropriate controls (enzyme with no inhibitor or with a G12C inhibitor (AMG-510)) were included on the plate. The exchange was initiated by the addition of a 5 μL/well volume containing 1 mM GppNHp and 300 nM SOS1 in assay buffer. The 10 μL/well reaction concentration of the bodipy-loaded KRAS G12C, GppNHp, and SOS1 were 2.5 nM, 500 uM, and 150 nM, respectively. The reaction plates were incubated at ambient temperature for 2 hours, a time estimated for complete GDP-GTP exchange in the absence of inhibitor. For the KRAS G12D and G12V mutants, similar guanine nucleotide exchange assays were used with 2.5 nM as final concentration for the bodipy loaded KRAS proteins and with 4 hours and 3 hours incubation after adding GppNHp-SOS1 mixture for G12D and G12V respectively. A cyclic peptide described to selectively bind G12D mutant (Sakamoto et al., BBRC 484.3 (2017), 605-611) or internal compounds with confirmed binding were used as positive controls in the assay plates. Fluorescence intensities were measured on a PheraStar plate reader instrument (BMG Labtech) with excitation at 485 nm and emission at 520 nm.
Either GraphPad prism or XLfit was used to analyze the data. The IC50 values were derived by fitting the data to a four parameter logistic equation producing a sigmoidal dose-response curve with a variable Hill coefficient. Prism equation: Y=Bottom+(Top−Bottom)/(1+10^((Log lC50−X)*Hill slope)); XLfit equation: Y=(A+((B−A)/(1+((X/C)^D)))) where X is the logarithm of inhibitor concentration and Y is the response.

[2] = Homo sapiens, MIA PaCa-2, 4 hours incubation

Chain of KRAS G12C (P01116 1-188 isoform P01116-2 G12C): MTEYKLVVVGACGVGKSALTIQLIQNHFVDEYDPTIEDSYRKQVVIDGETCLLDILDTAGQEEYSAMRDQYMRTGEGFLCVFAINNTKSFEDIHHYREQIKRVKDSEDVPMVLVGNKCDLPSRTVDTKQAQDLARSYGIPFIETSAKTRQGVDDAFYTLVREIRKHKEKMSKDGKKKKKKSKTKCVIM

SMILES | IC50 [1, 2] | IC50 (KRAS G12C) | IC50 ([1]; 4 hours incubation)
C=CC(=O)N1CCC(n2cnc3c(OC[C@@H]4CCCN4C)nc4c(F)c(-c5c(C)ccc6[nH]ncc56)c(Cl)cc4c32)CC1CC#N (single isomer, unassigned) [Example 37a] | ≤ 100 nM | ≤ 100 nM | –
C=CC(=O)N1CCC(n2cnc3c(OC[C@@H]4CCCN4C)nc4c(F)c(-c5cc(O)ccc5C)c(Cl)cc4c32)CC1CC#N (single isomer, unassigned) [Example 39a] | ≤ 100 nM | ≤ 100 nM | –
C=CC(=O)N1CC[C@H](n2cnc3c(N4CC(N(C)C)C4)nc4c(F)c(-c5cc(O)cc6ccccc56)c(Cl)cc4c32)C[C@H]1CC#N (single isomer, unassigned) [Example 47a] | ≤ 100 nM | ≤ 100 nM | –
C=CC(=O)N1CC[C@H](n2cnc3c(N4CC(N(C)C)C4)nc4c(F)c(-c5cc(O)cc(C)c5C)c(Cl)cc4c32)C[C@H]1CC#N (single isomer, unassigned) [Example 52a] | ≤ 100 nM | ≤ 100 nM | –
C=CC(=O)N1CC[C@H](n2cnc3c(N4CC(N(C)C)C4)nc4c(F)c(-c5cccc6cnccc56)c(Cl)cc4c32)C[C@H]1CC#N (single isomer, unassigned) [Example 70a] | ≤ 100 nM | ≤ 100 nM | –
C=CC(=O)N1CC[C@H](n2cnc3c(N4CC(N(C)C)C4)nc4c(F)c(-c5cccc6ccncc56)c(Cl)cc4c32)C[C@H]1CC#N (single isomer, unassigned) [Example 71a] | ≤ 100 nM | ≤ 100 nM | –
C=CC(=O)N1CC[C@H](n2cnc3c(N4CC(N(C)C)C4)nc4c(F)c(-c5cccc6cccnc56)c(Cl)cc4c32)C[C@H]1CC#N (single isomer, unassigned) [Example 72a] | ≤ 100 nM | ≤ 100 nM | –
C=CC(=O)N1CC[C@H](n2cnc3c(N4CC(N(C)C)C4)nc4c(F)c(-c5cncc6ccccc56)c(Cl)cc4c32)C[C@H]1CC#N (single isomer, unassigned) [Example 73b] | – | ≤ 100 nM | ≤ 100 nM
COC/C=C/C(=O)N1CC[C@H](n2cnc3c(N4CC(C)(N(C)C)C4)nc4c(F)c(-c5c(C)c(Cl)cc6[nH]ncc56)c(Cl)cc4c32)C[C@H]1CC#N (single isomer, unassigned) [Example 80a] | ≤ 100 nM | ≤ 100 nM | –

More lines, now with the values ahead:

IC50 [1, 2] | IC50 (KRAS G12C) | IC50 ([1]; 4 hours incubation) | SMILES
≤ 100 nM | ≤ 100 nM | – | C=CC(=O)N1CCC(n2cnc3c(OC[C@@H]4CCCN4C)nc4c(F)c(-c5c(C)c(Cl)cc6[nH]ncc56)c(Cl)cc4c32)CC1CC#N (single isomer, unassigned) [Example 40a]
≤ 100 nM | ≤ 100 nM | – | C=CC(=O)N1CC[C@H](n2cnc3c(N4CC(N(C)C)C4)nc4c(F)c(-c5cc(O)ccc5C)c(Cl)cc4c32)C[C@H]1CC#N (single isomer, unassigned) [Example 53a]
≤ 100 nM | ≤ 100 nM | – | C=CC(=O)N1CC[C@H](n2cnc3c(N4CC(N(C)C)C4)nc4c(F)c(-c5cc(O)ccc5Cl)c(Cl)cc4c32)C[C@H]1CC#N (single isomer, unassigned) [Example 54a]
≤ 100 nM | ≤ 100 nM | – | C=CC(=O)N1CC[C@H](n2cnc3c(N4CC(N(C)C)C4)nc4c(F)c(-c5ccc(F)c6cccnc56)c(Cl)cc4c32)C[C@H]1CC#N (single isomer, unassigned) [Example 64a]
– | ≤ 100 nM | ≤ 100 nM | C=CC(=O)N1CC[C@H](n2cnc3c(N4CC(N(C)C)C4)nc4c(F)c(-c5cccc6ccncc56)c(Cl)cc4c32)C[C@H]1CC#N (single isomer, unassigned) [Example 71b]
≤ 100 nM | ≤ 100 nM | – | C=CC(=O)N1CC[C@H](n2cnc3c(N4CC(N(C)C)C4)nc4c(F)c(-c5cncc6ccccc56)c(Cl)cc4c32)C[C@H]1CC#N (single isomer, unassigned) [Example 73a]
≤ 100 nM | ≤ 100 nM | – | C=CC(=O)N1CC[C@H](n2cnc3c(N4CC(N(C)C)C4)nc4c(F)c(-c5ccnc6ccccc56)c(Cl)cc4c32)C[C@H]1CC#N (single isomer, unassigned) [Example 74a]

— US20210269434A1, “TRICYCLIC COMPOUNDS AS INHIBITORS OF KRAS” (Incyte Corporation, priority 2020, published 2021)
